Experimental data as given in patent publication US9745335B2 (Blirt S.A., priority 2012, dated 2017).

Tests used:
[1] = test system: Candida albicans clinical strain Gu4; experiment: antifungal activity against MDR fungal strains and parents; type: cell-based; details: C. albicans Gu4, fluconazole sensitive, parent strain for Gu5
Description: (§1) For the determination of antifungal activity in vitro we used method of serial dilution in buffered medium RPMI 1640, pH 7.0, in a 96-wells microplates, according to the standard procedure (National Committee for Clinical Laboratory Standards. Reference method for broth dilution antifungal susceptibility testing of yeast, approved standard, 2nd ed. M27-A2 vol. 22 Wayne, Pa., 2002). The optical density of cells suspension was measured using a microplates reader (Victor^3, Perkin-Elmer) at the wavelength λ=531 nm (A531). On the basis of obtained results the diagrams of relation between A531 values and concentration of examined compound were made.

[2] = test system: Candida albicans strain 5674 (CaCdr1p, CaCdr2p); experiment: as above; type: cell-based; details: C. albicans 5674 (CaCdr1p, CaCdr2p)
Description: as §1

[3] = test system: Candida albicans clinical strain B4 (CaMdr1p); experiment: as above; type: cell-based; details: C. albicans B4 (CaMdr1p), fluconazole-resistant
Description: as §1

[4] = test system: Candida albicans strain STY31; experiment: as above; type: cell-based; details: C. albicans STY31, 5674 derivative, deletion of CDR1 and CDR2
Description: as §1

[5] = test system: Candida albicans clinical strain F5 (CaMdr1p); experiment: as above; type: cell-based; details: C. albicans F5 (CaMdr1p), fluconazole-resistant
Description: as §1

[6] = test system: Candida albicans strain STY7 (CaCdr1p); experiment: as above; type: cell-based; details: C. albicans STY7 (CaCdr1p), 5674 derivative, deletion of CDR2
Description: as §1

[7] = test system: Candida albicans clinical strain F2; experiment: as above; type: cell-based; details: C. albicans F2, fluconazole sensitive, parent strain for F5
Description: as §1

[8] = test system: Candida albicans clinical strain B3; experiment: as above; type: cell-based; details: C. albicans B3, fluconazole sensitive, parent strain for B4
Description: as §1

[9] = test system: Candida albicans clinical strain Gu5 (CaCdr1p, CaCdr2p); experiment: as above; type: cell-based; details: C. albicans Gu5 (CaCdr1p, CaCdr2p), fluconazole-resistant
Description: as §1

[10] = test system: Candida dubliniensis CBS 7987; experiment: antifungal activity in vitro, broader spectrum; type: cell-based
Description: as §1
(§2) Obtained results are presented below in tables 2A and 2B.

[11] = test system: Aspergillus niger LOCK E201; experiment: antifungal activity in vitro, broader spectrum; type: cell-based
Description: as §1, §2

Candida albicans SC 5314 = experiment: antifungal activity in vitro, broader spectrum; type: cell-based
Description: as §1, §2

[12] = test system: Trichoderma viride LOCK E159; experiment: antifungal activity in vitro, broader spectrum; type: cell-based
Description: as §1, §2

[13] = test system: Candida stellatoidea CBS 1905; experiment: antifungal activity in vitro, broader spectrum; type: cell-based
Description: as §1, §2

[14] = test system: Candida lipolytica KKP 322; experiment: antifungal activity in vitro, broader spectrum; type: cell-based
Description: as §1, §2

[15] = test system: Candida parapsilosis DSM 5784; experiment: antifungal activity in vitro, broader spectrum; type: cell-based
Description: as §1, §2

Candida arborea KKP 319 = experiment: antifungal activity in vitro, broader spectrum; type: cell-based
Description: as §1, §2

[16] = test system: Candida pseudotropicalis KKP 324; experiment: antifungal activity in vitro, broader spectrum; type: cell-based
Description: as §1, §2

[17] = test system: Candida quilliermondii DSM 11947; experiment: antifungal activity in vitro, broader spectrum; type: cell-based
Description: as §1, §2

HepG2 cells = experiment: cytotoxic activity against mammalian cells in tissue culture (MTT); type: cell-based, human
Description: (§3) All media contained 100 μg/ml of penicillin G and streptomycin. 24-wells microplates containing appropriate medium were inoculated with the cells in amount of 1.2×10^4 cells/well and allowed to stand overnight. Next, tested compounds as solution in dimethylsulfoxide (DMSO) were added in volume of 10 μl (serial 2× dilutions). To control well 10 μl of DMSO was added. Microplates with cell suspensions were incubated for 120 h at temperature 37° C. at atmosphere of 95%/5% CO2. After incubation, to all wells 200 μl of solution of 3-(4,5-dimethyltiazole-2-yl)-2,5-diphenylotetrazole bromide (MTT) in PBS (4 mg/ml) was added and plates were further incubated for 4 h at 37° C. Next, to dissolve crystals of formazane 1 ml of DMSO was added and absorption of solutions was measured at the wavelength λ=540 nm (A540), using a microplates reader (Victor^3, Perkin-Wallac). […] From these graphs IC50 values were read, that is concentration of tested compound in the presence at which A540 value is half of A540 value measured in the control sample.

CCRF-CEM cells = experiment: as above; type: cell-based, human
Description: as §3

Human erythrocytes = experiment: hemotoxicity determination (hemolytic activity); type: cell-based
How it was run: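 Human erythrocytes (2×10^7/ml in saline) were incubated with serially diluted compound for 30 min at 37 °C and then centrifuged. Released haemoglobin was read at A540 against a 0.1% Triton X-100 full-lysis control. EH50 is the interpolated concentration giving 50% of the control A540.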

[18] = test system: Candida lusitaniae DSM 70102; experiment: antifungal activity in vitro, serial dilution in RPMI 1640; type: cell-based
How it was run: (§4)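 Standard yeast broth dilution (M27-A2) in pH 7.0 buffered RPMI 1640. A531 of cell suspensions recorded and related graphically to compound concentration.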

[19] = test system: Saccharomyces cerevisiae ATCC 9763; experiment: as above; type: cell-based; details: RPMI 1640, pH 7.0; for Antifungal activity IC50: Saccharomyces cerevisiae ATCC 9763 (first head over MIC and IC50); for Antifungal activity MIC: Saccharomyces cerevisiae ATCC 9763
How it was run: as §4

[20] = test system: Candida tropicalis KKP 334; experiment: as above; type: cell-based
How it was run: as §4

Candida krusei DSM 6128 = experiment: as above; type: cell-based
How it was run: as §4

[21] = test system: Candida glabrata DSM 11226; experiment: as above; type: cell-based
How it was run: as §4

[22] = test system: Candida albicans ATCC 10231; experiment: as above; type: cell-based
How it was run: as §4

LLC-PK1 cells = experiment: cytotoxic activity against mammalian cells in tissue culture (MTT); type: cell-based, pig
Description: as §3

Row | Compound | Antifungal activity MIC [1] | Antifungal activity MIC [2] | Antifungal activity MIC [3] | Antifungal activity MIC [4] | Antifungal activity MIC [5] | Antifungal activity MIC [6] | Antifungal activity MIC [7] | Antifungal activity MIC [8] | Antifungal activity MIC [9] | Antifungal activity MIC [10] | Antifungal activity MIC [11] | Antifungal activity MIC (Candida albicans SC 5314) | Antifungal activity MIC [12] | Antifungal activity MIC [13] | Antifungal activity MIC [14] | Antifungal activity MIC [15] | Antifungal activity MIC (Candida arborea KKP 319) | Antifungal activity MIC [16] | Antifungal activity MIC [17] | IC50 (cytotoxic activity) (HepG2 cells) | other results
1 | C[C@@H]1[C@H](O)[C@@H](C)/C=C/C=C/C=C/C=C/C=C/C=C/C=C/[C@H](O[C@@H]2O[C@H](C)[C@@H](O)[C@H](NC(=O)[C@@H](N)Cc3ccccc3)[C@@H]2O)C[C@@H]2O[C@](O)(C[C@@H](O)C[C@@H](O)[C@H](O)CC[C@@H](O)C[C@@H](O)CC(=O)O[C@H]1C)C[C@H](O)[C@H]2C(=O)O [Compound A30, N-L-phenylalanylamphotericin B] | 1 µg/mL | 0.5 µg/mL | 2 µg/mL | 1 µg/mL | 4 µg/mL | 1 µg/mL | 2 µg/mL | 0.5 µg/mL | 2 µg/mL | 1 µg/mL | 2 µg/mL | 1 µg/mL | 4 µg/mL | 1 µg/mL | 2 µg/mL | 2 µg/mL | 4 µg/mL | 1 µg/mL | 1 µg/mL | >100 µg/mL | IC50 (cytotoxic activity) (CCRF-CEM cells): >100 µg/mL; Hemotoxi EH50 (Human erythrocytes): >100 µg/mL; Antifungal activity MIC [18]: 2 µg/mL; Antifungal activity IC50 [19]: 0.90 µg/mL; Antifungal activity MIC [19]: 2 µg/mL; Antifungal activity MIC [20]: 2 µg/mL; Antifungal activity MIC (Candida krusei DSM 6128): 2 µg/mL; Antifungal activity MIC [21]: 2 µg/mL; Antifungal activity MIC [22]: 2 µg/mL; IC50 (cytotoxic activity) (LLC-PK1 cells): >100 µg/mL
2 | C[C@@H]1[C@H](O)[C@@H](C)/C=C/C=C/C=C/C=C/C=C/C=C/C=C/[C@H](O[C@@H]2O[C@H](C)[C@@H](O)[C@H](NC(=O)[C@H](N)Cc3cccnc3)[C@@H]2O)C[C@@H]2O[C@](O)(C[C@@H](O)C[C@@H](O)[C@H](O)CC[C@@H](O)C[C@@H](O)CC(=O)O[C@H]1C)C[C@H](O)[C@H]2C(=O)O [Compound A36, N-D-β-(pyridin-3-yl)alanylamphotericin B] | 1 µg/mL | 0.5 µg/mL | 4 µg/mL | 0.25 µg/mL | 4 µg/mL | 0.5 µg/mL | 4 µg/mL | 0.5 µg/mL | 4 µg/mL | 1 µg/mL | 0.5 µg/mL | 1 µg/mL | 4 µg/mL | 2 µg/mL | 2 µg/mL | 2 µg/mL | 4 µg/mL | 1 µg/mL | 1 µg/mL | >100 µg/mL | IC50 (cytotoxic activity) (CCRF-CEM cells): >100 µg/mL; Hemotoxi EH50 (Human erythrocytes): >100 µg/mL; Antifungal activity MIC [18]: 2 µg/mL; Antifungal activity IC50 [19]: 0.53 µg/mL; Antifungal activity MIC [19]: 1 µg/mL; Antifungal activity MIC [20]: 2 µg/mL; Antifungal activity MIC (Candida krusei DSM 6128): 4 µg/mL; Antifungal activity MIC [21]: 4 µg/mL; Antifungal activity MIC [22]: 2 µg/mL; IC50 (cytotoxic activity) (LLC-PK1 cells): >100 µg/mL
3 | N-(L-N,N-dimethylphenylalanyl)amphotericin B [Compound A43] | 1 µg/mL | 1 µg/mL | 1 µg/mL | 1 µg/mL | 4 µg/mL | 0.5 µg/mL | 4 µg/mL | 0.5 µg/mL | 2 µg/mL | 1 µg/mL | 1 µg/mL | 1 µg/mL | 4 µg/mL | 1 µg/mL | 1 µg/mL | 1 µg/mL | 8 µg/mL | 2 µg/mL | 1 µg/mL | >100 µg/mL | IC50 (cytotoxic activity) (CCRF-CEM cells): >100 µg/mL; Hemotoxi EH50 (Human erythrocytes): >100 µg/mL; Antifungal activity MIC [18]: 2 µg/mL; Antifungal activity IC50 [19]: 1.43 µg/mL; Antifungal activity MIC [19]: 4 µg/mL; Antifungal activity MIC [20]: 4 µg/mL; Antifungal activity MIC (Candida krusei DSM 6128): 4 µg/mL; Antifungal activity MIC [21]: 4 µg/mL; Antifungal activity MIC [22]: 4 µg/mL; IC50 (cytotoxic activity) (LLC-PK1 cells): >100 µg/mL
4 | N-methyl-L-(O^γ-tert-butyl)glutamylamphotericin B [Compound A34] | 1 µg/mL | 4 µg/mL | 2 µg/mL | 2 µg/mL | 8 µg/mL | 2 µg/mL | 4 µg/mL | 1 µg/mL | 2 µg/mL | 1 µg/mL | 2 µg/mL | 1 µg/mL | 4 µg/mL | 1 µg/mL | 1 µg/mL | 1 µg/mL | 4 µg/mL | 1 µg/mL | 2 µg/mL | >100 µg/mL | IC50 (cytotoxic activity) (CCRF-CEM cells): >100 µg/mL; Hemotoxi EH50 (Human erythrocytes): >100 µg/mL; Antifungal activity MIC [18]: 2 µg/mL; Antifungal activity IC50 [19]: 1.22 µg/mL; Antifungal activity MIC [19]: 2 µg/mL; Antifungal activity MIC [20]: 4 µg/mL; Antifungal activity MIC (Candida krusei DSM 6128): 4 µg/mL; Antifungal activity MIC [21]: 4 µg/mL; Antifungal activity MIC [22]: 4 µg/mL; IC50 (cytotoxic activity) (LLC-PK1 cells): >100 µg/mL
